{"source": "patent US20110165660A1", "about": "“ENGINEERED MICROORGANISMS WITH ENHANCED FERMENTATION ACTIVITY” (VERDEZYNE, INC., priority 2009, published 2011)", "molecules": {"B1": {"name": "Ruminococcus flavefaciens xylose isomerase chimera XI-Rp5 (first 5 amino acids of Piromyces xylose isomerase), SEQ ID NO: 56 (Ruminococcus flavefaciens; … (protein)", "chain": "MAKEYFSNIGKIQYQGPKSTDPLSFKYYNPEEVINGKTMREHLKFALSWWHTMGGDGTDMFGCGTTDKTWGQSDPAARAKAKVDAAFEIMDKLSIDYYCFHDRDLSPEYGSLKATNDQLDIVTDYIKEKQGDKFKCLWGTAKCFDHPRFMHGAGTSPSADVFAFSAAQIKKALESTVKLGGNGYVFWGGREGYETLLNTNMGLELDNMARLMKMAVEYGRSIGFKGDFYIEPKPKEPTKHQYDFDTATVLGFLRKYGLDKDFKMNIEANHATLAQHTFQHELRVARDNGVFGSIDANQGDVLLGWDTDQFPTNIYDTTMCMYEVIKAGGFTNGGLNFDAKARRGSFTPEDIFYSYIAGMDAFALGFRAALKLIEDGRIDKFVADRYASWNTGIGADIIAGKADFASLEKYALEKGEVTASLSSGRQEMLESIVNNVLFSL", "notes": "E2 XI (CAB76571.1; MAKEY) on Ruminococcus XI"}, "B2": {"name": "Ruminococcus flavefaciens xylose isomerase chimera XI-Rp10 (first 10 amino acids of Piromyces xylose isomerase), SEQ ID NO: 58 (Ruminococcus flavefaciens; … (protein)", "chain": "MAKEYFPQIQQYQGPKSTDPLSFKYYNPEEVINGKTMREHLKFALSWWHTMGGDGTDMFGCGTTDKTWGQSDPAARAKAKVDAAFEIMDKLSIDYYCFHDRDLSPEYGSLKATNDQLDIVTDYIKEKQGDKFKCLWGTAKCFDHPRFMHGAGTSPSADVFAFSAAQIKKALESTVKLGGNGYVFWGGREGYETLLNTNMGLELDNMARLMKMAVEYGRSIGFKGDFYIEPKPKEPTKHQYDFDTATVLGFLRKYGLDKDFKMNIEANHATLAQHTFQHELRVARDNGVFGSIDANQGDVLLGWDTDQFPTNIYDTTMCMYEVIKAGGFTNGGLNFDAKARRGSFTPEDIFYSYIAGMDAFALGFRAALKLIEDGRIDKFVADRYASWNTGIGADIIAGKADFASLEKYALEKGEVTASLSSGRQEMLESIVNNVLFSL"}, "B3": {"name": "Ruminococcus flavefaciens xylose isomerase chimera XI-Rp15 (first 15 amino acids of Piromyces xylose isomerase), SEQ ID NO: 60 (Ruminococcus flavefaciens; … (protein)", "chain": "B2 chain with Q11K, Y12I, Q13K, G14F, P15E"}, "B4": {"name": "Ruminococcus flavefaciens xylose isomerase (hot rod) variant G179A (Ruminococcus flavefaciens; G179A) (protein)", "chain": "B2 chain with A2E, K3F, E4F, Y5S, F6N, P7I, Q8G, I9K, Q10I, G179A", "notes": "expressed in S. cerevisiae, soluble extract"}}, "key": {"[1]": {"biological_target": "S. cerevisiae ZWF1 variant A51D (mutant 4) (Saccharomyces cerevisiae, UniProt P11412, A51D)", "sequence (P11412 whole entry A51D)": "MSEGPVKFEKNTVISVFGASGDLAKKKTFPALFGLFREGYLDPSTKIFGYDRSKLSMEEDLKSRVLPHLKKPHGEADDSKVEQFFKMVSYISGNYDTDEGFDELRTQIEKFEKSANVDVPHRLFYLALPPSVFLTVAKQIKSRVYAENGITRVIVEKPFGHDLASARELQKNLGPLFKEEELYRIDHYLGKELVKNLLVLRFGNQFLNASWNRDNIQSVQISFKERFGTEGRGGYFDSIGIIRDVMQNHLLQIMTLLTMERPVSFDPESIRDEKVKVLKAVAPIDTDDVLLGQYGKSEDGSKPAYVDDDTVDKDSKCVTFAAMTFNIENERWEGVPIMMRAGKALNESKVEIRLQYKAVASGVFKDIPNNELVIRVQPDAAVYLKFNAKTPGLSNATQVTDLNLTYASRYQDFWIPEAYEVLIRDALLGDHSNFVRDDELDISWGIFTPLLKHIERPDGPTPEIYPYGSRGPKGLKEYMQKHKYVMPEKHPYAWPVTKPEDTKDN", "assay": "Cofactor preference of ZWF1 mutants (NAD+ vs NADP+)", "format": "biochemical", "conditions": "initial kinetic screening, preliminary cofactor phenotype", "description": "(§1) Strain BY4742 zwf1 (ATCC Cat. No. 4011971; Winzeler E A, et al. Science 285: 901-906, 1999. PubMed: 10436161) was used as the base strain for all ZWF1 assays. The assays were performed as follows: A 5 ml overnight of the strain expressing the ZWF1 gene was grown in SCD-ura. A 50 ml culture of the strain was then grown for about 18 hours from an initial OD600 of about 0.2 until it had reached about OD600 of about 4. The cells were centrifuged at 1046×g washed twice with 25 ml cold sterile water, and resuspended in 2 ml/g Yper Plus (Thermo Scientific) plus 1×protease inhibitors (EDTA-free). The cells were allowed to lyse at room temperature for about 30 minutes with constant rotation of the tubes. The lysate was centrifuged at 16,100×g for 10 minutes at 4° C. and the supernatants were transferred to a new 1.5 ml microcentrifuge tube. Quantification of the lysates was performed using the Coomassie-Plus kit (Thermo Scientific, San Diego, Calif.) as directed by the manufacturer.\n(§2) The reaction was started with 20 mM glucose-6-phosphate and the reaction was monitored at A340. The specific activity was measured as the μmol substrate/min/mg protein.\nSite-directed mutagenesis was used to alter of ZWF1 so that the altered ZWF1 could also utilize NAD+, thereby improving the REDOX balance within the cell. […]"}, "[2]": {"biological_target": "S. cerevisiae ZWF1 (glucose-6-phosphate dehydrogenase) variant A24G (mutant 1) (Saccharomyces cerevisiae, UniProt P11412, A24G)", "sequence (P11412 whole entry A24G)": "as the sequence (P11412 whole entry A51D) above, with A24G, D51A counted along it", "assay": "Cofactor usage of ZWF1 mutants (initial kinetic screening, NAD+ vs NADP+)", "format": "biochemical", "conditions": "preliminary cofactor phenotype", "description": "as §1, §2\n(§3) Site directed mutagenesis reactions were performed in the same manner for all mutations, and for mutants which include more than one mutation, each mutation was performed sequentially. About 50 ng of plasmid DNA was added to 1×Pfu Ultra II buffer, 0.3 mM dNTPs, […] site directed mutagenesis specific primers, and 1 U Pfu Ultra II polymerase (Agilent, La Jolla, Calif.) in a 50 μl reaction mix. The reaction was cycled at 95° C. for 10 minutes, followed by 15 rounds of 95° C. for 15 seconds, 55° C. for 40 seconds, and 72° C. for 3 minutes. A final 10 minute extension reaction at 72° C. was also included. The PCR reaction mixture was then digested with 30 U of Dpnl for about 2 hours and 5 μl of the digested PCR reaction mixture was used to transform competent DH5α (Zymo Research, Orange, Calif.) and plated onto LB plates containing the appropriate antibiotics. The table below lists mutants generated in a first round of mutagenesis."}, "[3]": {"biological_target": "S. cerevisiae ZWF1 (glucose-6-phosphate dehydrogenase) variant Y40L (mutant 7) (Saccharomyces cerevisiae, UniProt P11412, Y40L)", "sequence (P11412 whole entry Y40L)": "as the sequence (P11412 whole entry A51D) above, with Y40L, D51A counted along it", "assay": "Cofactor usage of ZWF1 mutants (initial kinetic screening, NAD+ vs NADP+)", "format": "biochemical", "conditions": "preliminary cofactor phenotype", "description": "as §1, §2, §3"}, "[4]": {"biological_target": "S. cerevisiae ZWF1 (glucose-6-phosphate dehydrogenase) variant F33Y (mutant 8) (Saccharomyces cerevisiae, UniProt P11412, F33Y)", "sequence (P11412 whole entry F33Y)": "as the sequence (P11412 whole entry A51D) above, with F33Y, D51A counted along it", "assay": "Cofactor usage of ZWF1 mutants (initial kinetic screening, NAD+ vs NADP+)", "format": "biochemical", "conditions": "preliminary cofactor phenotype", "description": "as §1, §2, §3"}, "[5]": {"biological_target": "S. cerevisiae ZWF1 (glucose-6-phosphate dehydrogenase) variant T28F (mutant 5) (Saccharomyces cerevisiae, UniProt P11412, T28F)", "sequence (P11412 whole entry T28F)": "as the sequence (P11412 whole entry A51D) above, with T28F, D51A counted along it", "assay": "Cofactor usage of ZWF1 mutants (initial kinetic screening, NAD+ vs NADP+)", "format": "biochemical", "conditions": "preliminary cofactor phenotype", "description": "as §1, §2, §3"}, "[6]": {"biological_target": "S. cerevisiae ZWF1 (glucose-6-phosphate dehydrogenase) variant K46R (mutant 6) (Saccharomyces cerevisiae, UniProt P11412, K46R)", "sequence (P11412 whole entry K46R)": "as the sequence (P11412 whole entry A51D) above, with K46R, D51A counted along it", "assay": "Cofactor usage of ZWF1 mutants (initial kinetic screening, NAD+ vs NADP+)", "format": "biochemical", "conditions": "preliminary cofactor phenotype", "description": "as §1, §2, §3"}, "[7]": {"biological_target": "S. cerevisiae ZWF1 (glucose-6-phosphate dehydrogenase) variant A24G/T28G (mutant 2) (Saccharomyces cerevisiae, UniProt P11412, A24G/T28G)", "sequence (P11412 whole entry A24G/T28G)": "as the sequence (P11412 whole entry A51D) above, with A24G, T28G, D51A counted along it", "assay": "Cofactor usage of ZWF1 mutants (initial kinetic screening, NAD+ vs NADP+)", "format": "biochemical", "conditions": "preliminary cofactor phenotype", "description": "as §1, §2, §3"}, "[8]": {"biological_target": "S. cerevisiae ZWF1 (glucose-6-phosphate dehydrogenase) variant A51N (mutant 3) (Saccharomyces cerevisiae, UniProt P11412, A51N)", "sequence (P11412 whole entry A51N)": "as the sequence (P11412 whole entry A51D) above, with D51N counted along it", "assay": "Cofactor usage of ZWF1 mutants (initial kinetic screening, NAD+ vs NADP+)", "format": "biochemical", "conditions": "preliminary cofactor phenotype", "description": "as §1, §2, §3"}, "[9]": {"substrate": "OC1OC[C@@H](O)[C@H](O)[C@H]1O", "assay": "purified protein, by the assay type", "format": "biochemical, Ruminococcus flavefaciens / Piromyces", "conditions": "other: xylose 40-500 mM, pH 7.5, about 30° C.", "protocol": "Approximately 20 μg of soluble whole cell extract from each transformed cell line was prepared using Y-PER plus reagent as described above was incubated in a solution containing about 100 mM Tris, pH 7.5, 10 mM MgCl2, 0.15 mM NADH (Sigma, St. Louis, Mo.), and 2 U sorbitol dehydrogenase (SDH) (Roche, Indianapolis, Ind.) at about 30° C. […] A Beckman DU-800 spectrophotometer was utilized with an Enzyme Mechanism software package (Beckman Coulter, Inc, Brea, Calif.), and the change in the A340 was monitored for 2-3 minutes."}, "[10]": {"substrate": "OC1OC[C@@H](O)[C@H](O)[C@H]1O", "assay": "purified protein, by the assay type", "format": "biochemical, Ruminococcus flavefaciens / Piromyces", "conditions": "other: xylose 40-500 mM, pH 7.5, about 30° C.", "from_the_text": "To generate the chimeric XI-Rp10 gene, the 5′ primer KAS/XI-R-P6-10 and 3′ primer KAS/3-XI-RF-NATIVE were first used to add nucleotides 16-30 from the XI-P gene to the 5′ end of the XI-R gene keeping the remainder of the XI-R gene in-frame. […] Following PCR purification of the resulting XI-Rp6-10 amplified product, 5′ primer KAS/XI-R-P1-10 and either the 3′ primer KAS/3-XI-RF-NATIVE or the 3′ primer KAS/3-XI-RF-NATIVE-HIS oligonucleotides were used to add additional sequences.", "remark": "listed apart in the source"}, "[11]": {"substrate": "OC1OC[C@@H](O)[C@H](O)[C@H]1O", "assay": "purified protein, by the assay type", "format": "biochemical, Ruminococcus flavefaciens / Piromyces", "conditions": "other: xylose 40-500 mM, pH 7.5, about 30° C.", "from_the_text": "Following PCR purification of the resulting XI-Rp6-15 amplified product, 5′ primer KAS/XI-R-P1-15 either 3′ primer KAS/3-XI-RF-NATIVE or 3′ primer KAS/3-XI-RF-NATIVE-HIS oligonucleotides were used to add additional sequences.", "remark": "listed apart in the source"}, "[12]": {"substrate": "OC1OC[C@@H](O)[C@H](O)[C@H]1O", "assay": "cells, lysate or membranes", "format": "biochemical, Ruminococcus flavefaciens", "conditions": "other: xylose about 40 to about 500 mM, pH 7.5, about 30° C.", "description": "A series of specific point mutations were made to the “hot rod” Ruminococcus xylose isomerase gene using site-directed mutagenesis.\nSite directed mutagenesis was performed as follows: About 50 ng of template DNA was added to 1×Pfu Ultra II buffer, 0.3 mM dNTPs, […] of the relevant mutagenesis primers depending on the mutant being constructed and 1 U Pfu Ultra 11 polymerase (Agilent, La Jolla, Calif.) in a 50 μl reaction mix. The “hot rod” Ruminococcus xylose isomerase gene was used as the template DNA for constructing single point mutation variants. Previously engineered mutants sometimes were used as “template” DNA to generate other mutants. Each reaction was PCR cycled as follows: 95° C. 10 minutes followed by 30 rounds of 95° C. for 20 seconds, 55° C. for 30 seconds, and 72° C. for 5 minutes. A final 5 minute extension reaction at 72° C. was also included. Following PCR, 1.5 μl of Dpnl (NEB, Ipswich, Mass.) was added and allowed to digest the reaction mixture for 1 to 1.5 hours at 37° C. 5 μl of this mixture was then used to transform NEB-5a cells (NEB, Ipswich, Mass.) and plated onto LB media with ampicillin (100 μg/ml). (Table below discloses SEQ ID NOS 229-256, respectively, in order of appearance)"}}, "note": "Substitutions are numbered along the chain they refer to. Names and notes keep the numbering of the source."}
{"molecule": "NC(=O)c1ccc[n+]([C@@H]2O[C@H](COP(=O)(O)OP(=O)(O)OC[C@H]3O[C@@H](n4cnc5c(N)ncnc54)[C@H](O)[C@@H]3O)[C@@H](O)[C@H]2O)c1", "note": "[NAD+]", "values": [{"measurement": "NAD+ usage", "setting": "[1]", "result": "Yes"}, {"measurement": "NAD+ usage", "setting": "[2]", "result": "No"}, {"measurement": "NAD+ usage", "setting": "[3]", "result": "No"}, {"measurement": "NAD+ usage", "setting": "[4]", "result": "No"}, {"measurement": "NAD+ usage", "setting": "[5]", "result": "No"}, {"measurement": "NAD+ usage", "setting": "[6]", "result": "No"}, {"measurement": "NAD+ usage", "setting": "[7]", "result": "No"}, {"measurement": "NAD+ usage", "setting": "[8]", "result": "No"}]}
{"molecule": "NC(=O)c1ccc[n+]([C@@H]2O[C@H](COP(=O)(O)OP(=O)(O)OC[C@H]3O[C@@H](n4cnc5c(N)ncnc54)[C@H](OP(=O)(O)O)[C@@H]3O)[C@@H](O)[C@H]2O)c1", "note": "[NADP+]", "values": [{"measurement": "NADP+ usage", "setting": "[1]", "result": "No"}, {"measurement": "NADP+ usage", "setting": "[2]", "result": "Yes"}, {"measurement": "NADP+ usage", "setting": "[3]", "result": "Yes"}, {"measurement": "NADP+ usage", "setting": "[4]", "result": "Yes"}, {"measurement": "NADP+ usage", "setting": "[5]", "result": "Yes"}, {"measurement": "NADP+ usage", "setting": "[6]", "result": "Yes"}, {"measurement": "NADP+ usage", "setting": "[7]", "result": "No"}, {"measurement": "NADP+ usage", "setting": "[8]", "result": "Yes"}]}
{"molecule": "B1", "values": [{"measurement": "Km", "setting": "[9]", "result": 66.5, "unit": "mM"}]}
{"molecule": "B2", "values": [{"measurement": "Km", "setting": "[10]", "result": 75.8, "unit": "mM"}]}
{"molecule": "B3", "values": [{"measurement": "Km", "setting": "[11]", "result": 49.3, "unit": "mM"}]}
{"molecule": "B4", "values": [{"measurement": "Km", "setting": "[12]", "result": 83.82, "unit": "mM"}]}
